The values below come from publication PMC9977398, “Next-generation membrane-active glycopeptide antibiotics that also inhibit bacterial cell division” (Chemical Science, 2023).

Data set [1] deals with VRSA 1 (vancomycin-resistant S. aureus). More on the design: method as in PMID 32195571. The note with it: previously reported; cited from earlier work.
In data set [2] the test system is human erythrocytes. More on the design: method as in PMID 32195571. The note with it: previously reported; cited from earlier work.
For data set [3], the system named is VRSA 12 (vancomycin-resistant S. aureus). More on the design: method as in PMID 32195571. To be noted: previously reported; cited from earlier work.
Another data set concerns E. coli. Nature of the data set: MIC against E. coli. Format: cell-based. The note with it: Escherichia coli.
The next data set deals with RAW 264.7 cells. More on the design: method as in PMID 32195571. The note with it: cited from earlier work.
A further data set concerns VRE ATCC 51575. Nature of the data set: Activity in blood plasma and liver homogenate. Format: cell-based, E. faecalis. To be noted: for MIC: Enterococcus, VRE ATCC 51575. The protocol:
Table S1: Activity of VanQAmC10 in mouse plasma and liver homogenate against MRSA […]
MIC of VanQAmC10 post incubation in (μM) […]
Activity in blood plasma and liver homogenate
To examine the susceptibility of VanQAmC10 to serum proteases, the antibacterial activities was tested in the presence of 50% of plasma and liver homogenate. Briefly, 250 μL of VanQAmC10 was added into 250 μL of fresh […] plasma and incubated at 37 °C. An aliquot of the samples 3 h and 24h post-incubation was diluted in 0.9% saline and the antibacterial activity (MIC) were determined against MRSA and VRE by following the same protocol as described above for the antibacterial assay. […]
50 μL of ∼10^6 CFU/mL bacterial inoculum (MRSA ATCC33591) was injected into the thigh. 1 h post-inoculation, animals were treated intraperitoneally twice with 12 h intervals with saline, vancomycin (12 mg kg−1), and VanQAmC10 (12 mg kg−1). 24 h post the first treatment, the animals were euthanized (using ether) and the thighs were collected aseptically. The thigh tissue was weighed and homogenized. The dilutions of the homogenate were plated onto agar plates, which were incubated overnight at about 37 °C. […]
In-vivo activity in murine burn wound infectionmodel 10-12

For data set [4], the system named is VRE 51559 (vancomycin-resistant E. faecium, VanA phenotype, ATCC 51559). Also on record: method as in PMID 32195571. To be noted: previously reported; cited from earlier work.
Data set [5] deals with human erythrocytes. Nature of the data set: Haemolysis assay. Format: cell-based. The note with it: human, 1 h, pH 7.4. The protocol: To select the lead compounds, the toxicity of 1–10 was tested against human erythrocytes as their hemolytic activity (HC50). The HC50 is determined as the concentration at which 50% of the compound treated cells are lysed. […] The HC50 for compounds 6–8 was also greater than 500 μM. […] Based on the in vitro activity and hemolysis studies, VanQbiph (4) from the aryl-substituted compounds and VanQAmC10 (8) from the alkyl-chain substituted compounds were selected for further investigations. […] VanQAmC10 (8) was additionally non-toxic to RAW 264.7 cells up to 40 μM and was therefore taken forward in vivo investigation.[18]
50 μL of serially diluted compound was added into 96 well microtiter plates. Freshly drawn, heparanized human blood was centrifuged down to obtain the erythrocytes and re-suspended to 5 vol % in PBS (pH 7.4). 150 μL of the erythrocyte suspension was added to the serially diluted compounds (from 500 µM to 2 µM). One set without compound and other with 50 μL of 1 vol % solution of Triton X-100 were kept as controls. The plates were incubated at 37 °C for 1 h followed by centrifugation at 3,500 rpm for 5 min. 100 μL of the supernatant from each well were transferred into fresh microtiter plates, and A540 was measured.
% haemolysis = (A - A0)/(Atotal -A0) × 100, where A is the absorbance of the test well, A 0 the absorbance of the negative controls (without compound), and A total the absorbance of 100 % hemolysis wells (with Triton X -100), all at 540 nm. […]

Read-outs that look alike come from different tables or passages of the source.

What is called HC50 is the concentration that lyses half of the red blood cells. One may read the MIC as the lowest concentration that inhibits growth of the organism. Consider `CCCCCCCCCCNC(=O)C[N+](C)(C)CCCNC(=O)C1NC(=O)C2NC(=O)C(NC(=O)C3NC(=O)C(CC(N)=O)NC(=O)C(NC(=O)C(CC(C)C)NC)C(O)c4ccc(c(Cl)c4)Oc4cc3cc(c4OC3OC(CO)C(O)C(O)C3OC3CC(C)(N)C(O)C(C)O3)Oc3ccc(cc3Cl)C2O)c2ccc(O)c(c2)-c2c(O)cc(O)cc21` (centres unmarked) [VanQAmC10 (8)], for which the “Minimum inhibitory concentration, VRSA 1” value in data set [1] was 3.1 µM. Also, in the data set with human erythrocytes [2], the HC50 was >500 µM. Moreover, the “Minimum inhibitory concentration, VRSA 12” value in data set [3] was 1.6 µM. Also, the MIC against E. coli worked out at 16 µM; with VRE ATCC 51575 (50% plasma, 37 °C, read-out: MIC post incubation in plasma), 4 µM; in the data set with VRE ATCC 51575 (read-out: MIC post incubation in liver homogenate), 4 µM; in the data set with VRE ATCC 51575 (read-out: MIC post incubation in media) it was 4 µM. For the same compound, in the data set with RAW 264.7 cells, the “concentration up to which non-toxic” value was 40 µM. Also, in the data set with VRE ATCC 51575 (VRE), the “change of MIC in plasma and liver homogenate” value is “remained unchanged”. The “Minimum inhibitory concentration, VRE 51559” value in data set [4] was 4 µM.
As for `CNC(CC(C)C)C(=O)NC1C(=O)NC(CC(N)=O)C(=O)NC2C(=O)NC3C(=O)NC(C(=O)NC(C(=O)NCCC[N+](C)(C)Cc4ccc(-c5ccccc5)cc4)c4cc(O)cc(O)c4-c4cc3ccc4O)C(O)c3ccc(c(Cl)c3)Oc3cc2cc(c3OC2OC(CO)C(O)C(O)C2OC2CC(C)(N)C(O)C(C)O2)Oc2ccc(cc2Cl)C1O` (centres unmarked) [VanQbiph (4)], the HC50 in the data set with human erythrocytes [5] was >500 µM.
